We go through 16 compounds from US6900216B2, “Dihydroimidazo[2,1-b]thiazole and dihydro-5h-thiazolo[3,2-A]pyrimidines as antidepressant agents” (Knoll GmbH, priority 2000, dated 2005).

One data set concerns the target T1, 5-HT reuptake sites (Rattus norvegicus, UniProt P31652).
T1 construct: Frontal cortical tissue from the brains of male Charles River rats; from tissue; host or cells: rat frontal cortical membranes
Kind of data set: 5-HT uptake: displacement of [3H]citalopram from 5-HT reuptake sites, rat frontal cortical membranes. It is filed as binding. The note with it: for Ki: [3H]citalopram 1.3 nM, rat frontal cortical membranes, fit to data from three experiments; for inhibition at 1 µM: 10^−6 M test compound, single determination, [3H]citalopram. On the procedure:
Frontal cortical tissue from the brains of male Charles River rats weighing 150-250 g was homogenised in ice-cold 50 mM Tris-HCl, pH 7.4 (when measured at 25° C.) containing 120 mM sodium chloride and 5 mM potassium chloride (Tris buffer; 1:30 w/v) and centrifuged at 40,000 g for 10 minutes. The supernatant was discarded and the pellet rehomogenised in Tris buffer, 1:60 w/v, and centrifuged at 40,000 g for 10 minutes. This step was repeated a further time. The final pellet was resuspended in 50 mM Tris-HCl, pH 7.4 containing 120 mM sodium chloride and 5 mM potassium chloride (equivalent to 3.125 mg wet weight of tissue/ml) and used immediately in the binding assay. All centrifugations were performed at 4° C.
Membranes (400 μl; equivalent to 1.25 mg wet weight of tissue/tube) were incubated with 50 μl [^3H]citalopram at a single concentration of 1.3 nM and 50 μl of distilled water (total binding) or 50 μl of test compound (at a single concentration of 10^−6 M or at 10 concentrations ranging from 10^−11-10^−3 M) or 50 μl of paroxetine (0.5 μM; non-specific binding) for 1 h at 27° C. Membrane bound radioactivity was recovered by filtration under vacuum through Skatron 11734 filters presoaked in 0.5% PEI using a Skatron Cell Harvester. Filters were then washed in ice-cold 50 mM Tris-HCl buffer, pH 7.4 (at 25° C., wash setting 9,9,0). The scored filter paper discs were punched out into vials, scintillation fluid added and radioactivity determined by liquid scintillation counting.
(§1) For each of these tests measuring the ability of compounds of Formula I to displace standard ligands from 5-HT1A receptors and 5-hydroxytryptamine (5-HT) and noradrenaline (NA) reuptake sites and muscarinic receptors in vitro, the percentage displacement of specific binding of tritiated ligand by 10^−6 M test compound was calculated in the following way.
(§2) Firstly, specific binding of tritiated ligand in the absence (A) and presence (B) of test compound was determined:
(§3) In the absence of compound: A(dpm)=Total binding (dpm)−Non-specific binding (dpm) In the presence of compound (10^−6 M): B(dpm)=Binding at 10^−6M (dpm)−Non-specific binding (dpm)
(§4) The specific binding of tritiated ligand in the presence (B) of compound was then converted to a percentage of specific binding of tritiated ligand in the absence (A) of compound: % Specific binding at 10^−6 M=B(dpm)/A(dpm)×100
(§5) The percentage displacement of specific binding of tritiated ligand by the test compound (10^−6 M) was then obtained by subtraction of the percentage specific binding in the presence of compound from the percentage specific binding in the absence of compound, which is taken as the maximum binding and so equals 100%:
(§6) % Displacement at 10^−6 M=100−% Specific binding at 10^−6 M.
(§7) In some cases, displacement curves were then produced for compounds which displaced ≧50% of specific binding of the tritiated ligand at 10^−6 M using a range of concentrations of the compound. The Ki was then calculated by simultaneous fitting using equations derived from the Feldman equations by robust non-linear regression to data from three experiments simultaneously (De Lean et al., 1978; Munson and Rodbard, 1980; Feldman, 1992). Munson P J and Rodbard D. Ligand: a versatile computerised approach for characterisation of ligand binding systems. Anal Biochem 1980; 107: 220. Feldman HA. Mathematical theory of complex ligand binding systems at equilibrium: some methods for parameter fitting. Anal Biochem 1992: 48, 317. De Lean A, Munson P J and Rodbard D. Simultaneous analysis of families of sigmoidal curves: application to bioassay, radioligand assay, and physiological dose-response curves. Am J Physiol 1978: 235 (2), E97-E102.
The results obtained in the above tests for 5-HT1A binding and 5-HT and NA uptake and muscarinic binding for the final products of Examples 1-39 hereinafter are given in Table 1 below. Kis are in nM. % Figures are for % displacement at 10^−6 M for a single determination.
In general terms: In a radioligand displacement assay an active substance lowers the binding of a labelled ligand.

In data set [1] the target is T2, noradrenaline (NA) reuptake sites (Rattus norvegicus, UniProt Q63380).
T2 construct: Frontal cortical tissue from the brains of male Charles River rats; from tissue; host or cells: rat frontal cortical membranes
T2 sequence (Q63380 1-617): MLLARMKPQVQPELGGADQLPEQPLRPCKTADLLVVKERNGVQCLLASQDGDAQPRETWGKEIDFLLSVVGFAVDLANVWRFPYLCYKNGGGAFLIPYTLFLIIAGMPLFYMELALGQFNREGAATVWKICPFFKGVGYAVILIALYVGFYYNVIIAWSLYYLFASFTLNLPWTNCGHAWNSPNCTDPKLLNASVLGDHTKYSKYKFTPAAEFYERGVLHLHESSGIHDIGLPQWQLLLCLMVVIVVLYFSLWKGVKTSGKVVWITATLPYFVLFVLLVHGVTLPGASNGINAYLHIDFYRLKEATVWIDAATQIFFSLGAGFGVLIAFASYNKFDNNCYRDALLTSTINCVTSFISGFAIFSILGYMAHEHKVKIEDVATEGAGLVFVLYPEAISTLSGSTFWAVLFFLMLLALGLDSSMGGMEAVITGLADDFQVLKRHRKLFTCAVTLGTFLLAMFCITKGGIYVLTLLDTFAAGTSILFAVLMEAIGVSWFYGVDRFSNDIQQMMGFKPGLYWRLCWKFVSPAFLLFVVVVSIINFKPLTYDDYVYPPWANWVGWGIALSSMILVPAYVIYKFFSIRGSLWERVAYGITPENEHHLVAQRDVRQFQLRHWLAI
Kind of data set: NA uptake: displacement of [3H]nisoxetine from noradrenaline reuptake sites, rat frontal cortical membranes. It is filed as binding. The note with it: for Ki: [3H]nisoxetine 0.6 nM, rat frontal cortical membranes, fit to data from three experiments; for inhibition at 1 µM: read-out: NA uptake % displacement at 10^−6 M. On the procedure:
Frontal cortical tissue from the brains of male Charles River rats weighing 150-250 g was homogenised in ice-cold 50 mM Tris-HCl, pH 7.4 (at 25° C.) containing 120 mM sodium chloride and 5 mM potassium chloride (Tris buffer; 1:60 w/v) using a Kinematic polytron (speed setting 6 for 10 seconds) and centrifuged at 40,000 g for 10 minutes. The supernatant was discarded and the pellet rehomogenised in Tris buffer, 1:60 w/v, and centrifuged at 40,000 g for 10 minutes. This step was repeated twice more so that, in total, the brain tissue was homogenised and centrifuged four times. The final pellet was resuspended in 50 mM Tris-HCl, pH 7.4 containing 300 mM sodium chloride and 5 mM potassium chloride (equivalent to 18.75 mg wet weight of tissue/ml) and used immediately in the binding assay. All centrifugations were performed at 4° C.
Membranes (400 μl; equivalent to 7.5 mg wet weight of tissue/tube) were incubated with 50 μl [^3H]nisoxetine at a single concentration of 0.6 nM and 50 μl of distilled water (total binding) or 50 μl^− of test compound (at a single concentration 10^−6M or at 10 concentrations ranging from 10^−11-10^−3 M) or 50 μl of mazindol (1 μM; non-specific binding) for 4 h at 4° C. Membrane bound radioactivity was recovered by filtration under vacuum through Skatron 11734 filters using a Skatron cell harvester. Filters were rapidly washed with ice-cold 50 mM Tris-HCl, pH 7.4 containing 120 mM sodium chloride and 5 mM potassium chloride (wash setting 9,9,0). The scored filter paper discs were punched out into vials, scintillation fluid added and radioactivity determined by liquid scintillation counting.
as §1, §2, §3, §4, §5, §6
as §7, with “E97-E102. […]” for “E97-E102.”

In general, Ki refers to a measure of affinity in units of concentration, obtained from inhibition or displacement. A lower Ki goes with higher affinity. For orientation: melting point means the temperature, or range, at which the solid turns liquid.

T1 sequence (P31652 whole entry): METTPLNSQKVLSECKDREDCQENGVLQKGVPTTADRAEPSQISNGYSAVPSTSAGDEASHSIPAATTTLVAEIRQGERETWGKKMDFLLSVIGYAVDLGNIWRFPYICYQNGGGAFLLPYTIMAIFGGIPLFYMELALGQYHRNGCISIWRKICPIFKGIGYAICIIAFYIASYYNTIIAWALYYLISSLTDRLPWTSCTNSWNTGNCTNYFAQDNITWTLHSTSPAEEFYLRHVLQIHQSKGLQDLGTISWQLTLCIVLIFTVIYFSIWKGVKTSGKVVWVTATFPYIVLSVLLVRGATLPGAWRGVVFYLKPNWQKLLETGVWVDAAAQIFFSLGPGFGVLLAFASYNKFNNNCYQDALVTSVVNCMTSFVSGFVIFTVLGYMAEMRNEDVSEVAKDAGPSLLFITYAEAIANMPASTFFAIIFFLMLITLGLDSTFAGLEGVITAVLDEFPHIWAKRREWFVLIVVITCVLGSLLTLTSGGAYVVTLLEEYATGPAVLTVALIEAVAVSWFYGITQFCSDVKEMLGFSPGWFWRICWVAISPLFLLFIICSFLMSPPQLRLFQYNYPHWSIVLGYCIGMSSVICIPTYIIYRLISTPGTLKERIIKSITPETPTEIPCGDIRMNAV

Compound `Br.CC1=C(c2cc3c(Cl)cccc3s2)N2CCN=C2S1` [Example 10, 3-(4-chlorobenzo[b]thiophen-2-yl)-2-methyl-5,6-dihydroimidazo[2,1-b]thiazole hydrobromide] returned a melting point of 246 to 248 °C. The compound also registered a Ki on 5-HT reuptake sites of 29.3 nM. Also, the inhibition constant (Ki) in data set [1] came out at 69.5 nM.
For `Br.CCC1=C(c2cc3cc(Cl)ccc3s2)N2CCN=C2S1` [Example 11, 3-(5-chlorobenzo[b]thiophen-2-yl)-2-ethyl-5,6-dihydroimidazo[2,1-b]thiazole hydrobromide], the melting point is 282 to 284 °C. For the same compound, the inhibition at 1 µM on 5-HT reuptake sites stood at 97%. The inhibition at 1 µM in data set [1] is 92%.
On to `CCC1=C(c2ccc3sccc3c2)N2CCN=C2S1.O=C(O)/C=C/C(=O)O` [Example 31, 3-(benzo[b]thiophen-5-yl)-2-ethyl-5,6-dihydroimidazo[2,1-b]thiazole fumarate], for which the melting point lay within 145 to 150 °C. Further, the affinity on 5-HT reuptake sites, expressed as Ki, was 35 nM. The compound further registered a Ki in data set [1] of 4.3 nM.
With `Br.CCC1=C(c2cccc3sccc23)N2CCN=C2S1` [Example 13, 3-(benzo[b]thiophen-4-yl)-2-ethyl-5,6-dihydroimidazo[2,1-b]thiazole hydrobromide], the melting point fell in the range of 144 to 146 °C. For the same compound, the Ki at 5-HT reuptake sites amounted to 84 nM. The compound also registered a Ki in data set [1] of 3.6 nM.
`Br.CC1=C(c2cc3c(Cl)cccc3s2)N2CCCN=C2S1` [Example 17, 3-(4-chlorobenzo[b]thiophen-2-yl)-2-methyl-6,7-dihydro-5H-thiazolo[3,2-a]pyrimidine hydrobromide] yielded a melting point of 236 to 238 °C. At 5-HT reuptake sites, the inhibition at 1 µM is 84%. For the same compound, the inhibition at 1 µM in data set [1] came to 84%.
As for `Br.c1cc(C2=C(C3CC3)SC3=NCCN32)c2ccsc2c1` [Example 34, 3-(benzo[b]thiophen-4-yl)-2-cyclopropyl-5,6-dihydroimidazo[2,1-b]thiazole hydrobromide], the melting point is 213 to 214 °C. On 5-HT reuptake sites, this compound displayed an inhibitory constant (Ki) of 53 nM. Moreover, the inhibition constant (Ki) in data set [1] stood at 2 nM.
For `Br.CC1=C(c2ccc3sccc3c2)N2CCN=C2S1` [Example 21, 3-(benzo[b]thiophen-5-yl)-2-methyl-5,6-dihydroimidazo[2,1-b]thiazole hydrobromide], the melting point came out at 285 °C. The compound further returned a Ki at 5-HT reuptake sites of 92 nM. This compound also gave a Ki in data set [1] of 5.5 nM.
In the case of `CSC1=C(c2cccc3sccc23)N2CCN=C2S1.O=C(O)/C=C/C(=O)O` [Example 32, 3-(benzo[b]thiophen-4-yl)-2-(methylthio)-5,6-dihydroimidazo[2,1-b]thiazole fumarate], the melting point was 185 to 187 °C. This compound had an inhibitory constant (Ki) on 5-HT reuptake sites of 223 nM. This compound displayed an inhibition constant (Ki) in data set [1] of 3.5 nM.
As for `Br.CC1=C(c2cc3cccc(Cl)c3s2)N2CCN=C2S1` [Example 20, 3-(7-chlorobenzo[b]thiophen-2-yl)-2-methyl-5,6-dihydroimidazo[2,1-b]thiazole hydrobromide], the melting point lay in the range of 294 to 295 °C. The compound also came in with an inhibition at 1 µM at 5-HT reuptake sites of 73%. Also, the inhibition at 1 µM in data set [1] amounted to 47%.
In turn, `C=CC1=C(c2cccc3sccc23)N2CCN=C2S1.Cl` [Example 39, 3-(benzo[b]thiophen-4-yl)-2-vinyl-5,6-dihydroimidazo[2,1-b]thiazole hydrochloride] registered a melting point of 195 to 197 °C. The inhibition at 1 µM at 5-HT reuptake sites amounted to 70%. Besides, the inhibition at 1 µM in data set [1] is 100%.
The like results for `Cc1cccc2sc(C3=CSC4=NCCN34)cc12.Cl` [Example 14, 3-(4-methylbenzo[b]thiophen-2-yl)-5,6-dihydroimidazo[2,1-b]thiazole hydrochloride] were, in that order, 238 to 245 °C, 96% and 87%.
Regarding `Br.CC1=C(c2ccc3ccsc3c2)N2CCN=C2S1` [Example 37, 3-(benzo[b]thiophen-6-yl)-2-methyl-5,6-dihydroimidazo[2,1-b]thiazole hydrobromide], the melting point is 252 to 254 °C. The affinity at 5-HT reuptake sites, expressed as Ki, was 213 nM. For the same compound, in data set [1], affinity was put at a Ki of 7.4 nM.
Consider `CC1=C(c2cccc3sc(C)cc23)N2CCN=C2S1.Cl` [Example 33, 2-methyl-3-(2-methylbenzo[b]thiophen-4-yl)-5,6-dihydroimidazo[2,1-b]thiazole hydrochloride], for which the melting point stood at 271 °C. The compound also returned an inhibition at 1 µM at 5-HT reuptake sites of 62%. Also, the inhibition at 1 µM in data set [1] stood at 84%.
The compound `Br.C=CCC1=C(c2cccc3sccc23)N2CCN=C2S1` [Example 36, 2-allyl-3-(benzo[b]thiophen-4-yl)-5,6-dihydroimidazo[2,1-b]thiazole hydrobromide] returned a melting point of 188 to 190 °C. Besides, on 5-HT reuptake sites, the Ki came out at 89 nM. In data set [1], this compound showed a Ki of 1.7 nM.
With `Cl.Fc1cccc2sc(C3=CSC4=NCCN34)cc12` [Example 5, 3-(4-fluorobenzo[b]thiophen-2-yl)-5,6-dihydroimidazo[2,1-b]thiazole hydrochloride], the melting point was in the range of 220 to 224 °C. This compound yielded an inhibition at 1 µM on 5-HT reuptake sites of 95%. Also, the inhibition at 1 µM in data set [1] amounted to 100%.
In turn, `OCC1=C(c2ccc3sccc3c2)N2CCN=C2S1` [Example 28, [3-(benzo[b]thiophen-5-yl)-5,6-dihydroimidazo[2,1-b]-thiazol-2-yl]methanol] showed a melting point of 149 to 150 °C. This compound showed a Ki at 5-HT reuptake sites of 148 nM. The same compound displayed an inhibitory constant (Ki) in data set [1] of 5.4 nM.
